PMC4408270 (Bioorganic & medicinal chemistry letters, 2015)
Substitutions are numbered along the chain they refer to. “Also recorded” adds a separate entry of the source. Where two headings read alike, the source gives them in different places.

Legend:
[1] = target: T1, CCK2R (Homo sapiens, UniProt P32239); experiment: Intracellular calcium response in CHO-CCK2R cells; format: cell-based
T1 sequence (P32239 1-447): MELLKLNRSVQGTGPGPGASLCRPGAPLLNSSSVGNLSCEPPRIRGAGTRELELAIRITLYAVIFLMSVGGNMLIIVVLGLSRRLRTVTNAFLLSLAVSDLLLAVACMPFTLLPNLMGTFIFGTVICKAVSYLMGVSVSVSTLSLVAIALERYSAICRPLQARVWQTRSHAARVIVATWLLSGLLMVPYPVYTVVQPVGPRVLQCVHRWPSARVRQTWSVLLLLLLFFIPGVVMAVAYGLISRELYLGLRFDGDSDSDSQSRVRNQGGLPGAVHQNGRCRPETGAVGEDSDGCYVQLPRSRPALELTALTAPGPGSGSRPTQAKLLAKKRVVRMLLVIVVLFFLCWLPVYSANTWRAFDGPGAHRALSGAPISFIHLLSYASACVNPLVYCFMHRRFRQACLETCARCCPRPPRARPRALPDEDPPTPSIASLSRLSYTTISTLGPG

[2] = target: T2, CCK1R (Homo sapiens, UniProt P32238); format: cell-based
T2 sequence (P32238 1-428): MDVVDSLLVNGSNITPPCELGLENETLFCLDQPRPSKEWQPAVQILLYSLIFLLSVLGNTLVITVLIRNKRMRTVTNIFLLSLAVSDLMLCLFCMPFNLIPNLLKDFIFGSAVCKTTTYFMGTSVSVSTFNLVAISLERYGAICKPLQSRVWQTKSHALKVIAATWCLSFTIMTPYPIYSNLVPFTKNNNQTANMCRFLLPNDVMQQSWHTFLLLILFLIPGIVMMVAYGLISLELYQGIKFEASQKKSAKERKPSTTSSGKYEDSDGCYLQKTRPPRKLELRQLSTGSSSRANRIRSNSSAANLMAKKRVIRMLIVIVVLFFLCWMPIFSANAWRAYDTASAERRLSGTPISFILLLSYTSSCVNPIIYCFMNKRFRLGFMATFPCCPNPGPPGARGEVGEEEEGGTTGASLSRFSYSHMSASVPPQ

[3] = target: T3, CCK2R TM3 (V3.28T, S3.29T) (Homo sapiens, UniProt P32239, S131T/V130T); experiment: 125I-CCK competition binding, chimeric construct
T3 sequence (P32239 1-447 V130T/S131T): T1 sequence (P32239 1-447) with V130T, S131T

[4] = target: T2, CCK1R; experiment: Competition binding of orthosteric radioligand 125I-CCK, CHO cell membranes
[5] = target: T2, CCK1R; experiment: Intracellular calcium response in CHO-CCK1R cells; format: cell-based; conditions: % of the ATP (0.1mM) positive control
[6] = test system: CCK2R TM chimeric constructs; experiment: 125I-BDZ-2 competition binding, CCK2R-based chimeras as a group
[7] = target: T4, CCK2R TM2 (T2.61N) (Homo sapiens, UniProt P32239, T111N); experiment: 125I-CCK competition binding, chimeric construct
T4 sequence (P32239 1-447 T111N): T1 sequence (P32239 1-447) with T111N

[8] = target: T1, CCK2R; experiment: Competition binding of orthosteric radioligand 125I-CCK, CHO cell membranes; conditions: 125I-CCK radioligand
[9] = target: T4, CCK2R TM2 (T2.61N); experiment: 125I-BDZ-2 competition binding, chimeric construct; conditions: NDB = no detectable binding
[10] = target: T5, CCK2R TM6 (V6.51I, Y6.52F) (Homo sapiens, UniProt P32239, V349I/Y350F); experiment: 125I-BDZ-2 competition binding, chimeric construct
T5 sequence (P32239 1-447 V349I/Y350F): T1 sequence (P32239 1-447) with V349I, Y350F

[11] = target: T5, CCK2R TM6 (V6.51I, Y6.52F); experiment: 125I-CCK competition binding, chimeric construct

Row | SMILES | Intracellular calcium response at CCK2R-expressing cells [1] | Decrease in efficacy of the CCK response ([2]; 1µM compound) [%] | Allosteric modulatory (PAM) activity on CCK dose-response curve ([2]; increasing concentrations of compound) | IC50 [3] [nM] | IC50 [4] [nM] | Intrinsic agonist response ([5]; 100nM compound) [%] | Intrinsic agonist response ([5]; 1µM compound) [%] | Change in binding affinity at chimeras vs wild type CCK2R [6] | IC50 [7] [nM] | Right shift (poorer affinity) vs wild type CCK2R ([7]; 125I-CCK, CCK2R TM2 substitution) [fold] | Fold lower IC50 at CCK2R than at CCK1R [8] | IC50, 125I-BDZ-2 [9] | IC50 [10] [nM] | IC50 [11] [nM] | Shift to the right in the CCK dose-response curve ([2]; 100nM compound) [fold] | Shift to the right in the CCK dose-response curve ([2]; 1µM compound) [fold]
1 | O=C(CN1C(=O)C(NC(=O)Nc2ccccc2)C(=O)N(c2ccccc2)c2ccccc21)Nc1ccccc1 (stereo not drawn) | stimulated no intracellular calcium responses | 11 | – | – | – | – | – | – | – | – | – | – | – | – | – | –
2 | CC(C)N(C(=O)CN1C(=O)[C@H](NC(=O)Nc2cccc(C(=O)O)c2)C(=O)N(c2ccccc2)c2ccccc21)c1ccccc1 [GI181771X, reference compound] | – | – | did not yield a significant left-shift or an increase in efficacy; also recorded: no PAM activity | – | – | – | – | – | – | – | – | – | – | – | – | –
3 | COc1ccc(N(C)C(=O)CN2C(=O)C(NC(=O)Nc3ccccc3)C(=O)N(c3ccccc3)c3ccccc32)cc1 (stereo not drawn) [GR135470X] | stimulated no intracellular calcium responses | 14 | – | 10.1 ± 1.6 | 450 ± 104 | 43 | 48 | none of the chimeras tested exhibited a change in binding affinities | 519 ± 138 | 10 | ~ 9 fold | NDB | 36 ± 5.5 | 165 ± 38 | 3.6 | 8.5
